Tests used:
Format in all cases: in vivo
[1] = tested on: pigweed (Amaranthus retroflexus); assay: Preemergence herbicidal activity, pigweed; settings: soil spray, visual after 3 weeks, 0 no injury, 100 complete kill or no germination
Procedure: (§1) The soil matrix was contained in plastic pots with a surface area of 161 square centimeters. When required to ensure good germination and healthy plants, a fungicide treatment and/or other chemical or physical treatment was applied. A weighed amount, determined by the highest rate to be tested, of each test compound was placed in a 20 mL glass vial and was dissolved in 8 mL of a 97:3 v/v (volume/volume) mixture of acetone and dimethyl sulfoxide to obtain concentrated stock solutions. […] The stock solutions obtained were diluted with a 99.9:0.1 mixture of water and Tween® 155 surfactant (ethoxylated sorbitan fatty acid ester) to obtain application solutions of known concentration. The solutions containing the highest concentration to be tested were prepared by diluting 4 mL aliquots of the stock solution with 8.5 mL of the mixture and lower concentrations were prepared by dilution of appropriate smaller portions of the stock solution. A 2.5 mL aliquot of each solution of known concentration was sprayed evenly onto the soil of each seeded pot using a Cornwall 5.0 mL glass syringe fitted with a TeeJet TN-3 hollow cone nozzle to obtain thorough coverage of the soil in each pot. Control pots were sprayed in the same manner with the aqueous mixture. A highest application rate of 4.48 kg/ha is achieved when 50 mg of test compound is employed. The treated pots and control pots were placed in a greenhouse with an approximately 15 hr photoperiod which was maintained at about 23-29° C. during the day and 22-28° C. during the night. Nutrients and water were added on a regular basis and supplemental lighting was provided with overhead metal halide 1000 Watt lamps as necessary. The water was added by top-irrigation. After 3 weeks the condition of the test plants that germinated and grew as compared with that of the untreated plants that germinated and grew was determined visually and scored on a scale of 0 to 100 percent where 0 corresponds to no injury and 100 corresponds to complete kill or no germination.

[2] = tested on: wild buckwheat (Polygonum convolvulus); assay: Postemergence herbicidal activity, wild buckwheat; settings: foliar spray, visual after 2 weeks, 0 no injury, 100 complete kill
Procedure: (§2) Seeds of the desired test plant species were planted in Grace-Sierra MetroMix® 306 planting mixture, which typically has a pH of 6.0 to 6.8 and an organic matter content of about 30 percent, in plastic pots with a surface area of 64 square centimeters. When required to ensure good germination and healthy plants, a fungicide treatment and/or other chemical or physical treatment was applied. The plants were grown for 7-21 days in a greenhouse with an approximately 15 hr photoperiod which was maintained at about 23-29° C. during the day and 22-28° C. during the night. Nutrients and water were added on a regular basis and supplemental lighting was provided with overhead metal halide 1000 Watt lamps as necessary. The plants were employed for testing when they reached the first or second true leaf stage. A weighed amount of each test compound, determined by the highest rate to be tested, was placed in a 20 mL glass vial and was dissolved in 4 mL of a 97:3 v/v (volume/volume) mixture of acetone and dimethyl sulfoxide to obtain concentrated stock solutions. […] The concentrated stock solutions obtained were diluted with an aqueous mixture containing acetone, water, iso-propyl alcohol, dimethyl sulfoxide, Atplus 411F crop oil concentrate, and Triton X-155 surfactant (methylenebisdiamyl phenoxy polyethoxy ethanol) in a 48.5:39:10:1.5:1.0:0.02 v/v ratio to obtain spray solutions of known concentration. The solutions containing the highest concentration to be tested were prepared by diluting 2 mL aliquots of the stock solution with 13 mL of the mixture and lower concentrations were prepared by dilution of appropriate smaller portions of the stock solution. Approximately 1.5 mL aliquots of each solution of known concentration were sprayed evenly onto each of the test plant pots using a DeVilbiss atomizer driven by compressed air pressure of 2 to 4 psi (140 to 280 kilopascals) to obtain thorough coverage of each plant. Control plants were sprayed in the same manner with the aqueous mixture. In this test an application rate of 1 ppm results in the application of approximately 1 g/ha. The treated plants and control plants were placed in a greenhouse as described above and watered by sub-irrigation to prevent wash-off of the test compounds. After 2 weeks the condition of the test plants as compared with that of the untreated plants was determined visually and scored on a scale of 0 to 100 percent where 0 corresponds to no injury and 100 corresponds to complete kill.

[3] = tested on: pigweed (Amaranthus retroflexus); assay: Postemergence herbicidal activity, pigweed; settings: foliar spray, visual after 2 weeks, 0 no injury, 100 complete kill
Procedure: as §2

[4] = tested on: crabgrass (Digitaria sanguinalis); assay: Preemergence herbicidal activity, crabgrass; settings: soil spray, visual after 3 weeks, 0 no injury, 100 complete kill or no germination
Procedure: as §1

[5] = tested on: giant foxtail (Setaria faberi); assay: Preemergence herbicidal activity, giant foxtail; settings: soil spray, visual after 3 weeks, 0 no injury, 100 complete kill or no germination
Procedure: as §1

[6] = tested on: chickweed (Stellaria media); assay: Postemergence herbicidal activity, chickweed; settings: foliar spray, visual after 2 weeks, 0 no injury, 100 complete kill
Procedure: as §2

[7] = tested on: blackgrass (Alopecurus myosuroides); assay: Preemergence herbicidal activity, blackgrass; settings: soil spray, visual after 3 weeks, 0 no injury, 100 complete kill or no germination
Procedure: as §1

[8] = tested on: cocklebur (Xanthium strumarium); assay: Postemergence herbicidal activity, cocklebur; settings: foliar spray, visual after 2 weeks, 0 no injury, 100 complete kill
Procedure: as §2

[9] = tested on: cocklebur (Xanthium strumarium); assay: Preemergence herbicidal activity, cocklebur; settings: soil spray, visual after 3 weeks, 0 no injury, 100 complete kill or no germination
Procedure: as §1

[10] = tested on: lambsquarters (Chenopodium album); assay: Preemergence herbicidal activity, lambsquarters; settings: soil spray, visual after 3 weeks, 0 no injury, 100 complete kill or no germination
Procedure: as §1

[11] = tested on: giant foxtail (Setaria faberi); assay: Postemergence herbicidal activity, giant foxtail; settings: foliar spray, visual after 2 weeks, 0 no injury, 100 complete kill
Procedure: as §2

[12] = tested on: blackgrass (Alopecurus myosuroides); assay: Postemergence herbicidal activity, blackgrass; settings: foliar spray, visual after 2 weeks, 0 no injury, 100 complete kill
Procedure: as §2

[13] = tested on: morningglory (Ipomoea hederacea); assay: Postemergence herbicidal activity, morningglory; settings: foliar spray, visual after 2 weeks, 0 no injury, 100 complete kill
Procedure: as §2

wild oats (Avena fatua) [14] = assay: Postemergence herbicidal activity, wild oats; settings: foliar spray, visual after 2 weeks, 0 no injury, 100 complete kill
Procedure: as §2

[15] = tested on: barnyardgrass (Echinochloa crus-galli); assay: Preemergence herbicidal activity, barnyardgrass; settings: soil spray, visual after 3 weeks, 0 no injury, 100 complete kill or no germination
Procedure: as §1

[16] = tested on: lambsquarters (Chenopodium album); assay: Postemergence herbicidal activity, lambsquarters; settings: foliar spray, visual after 2 weeks, 0 no injury, 100 complete kill
Procedure: as §2

[17] = tested on: Rox orange sorghum (Sorghum bicolor); assay: Preemergence herbicidal activity, Rox orange sorghum; settings: soil spray, visual after 3 weeks, 0 no injury, 100 complete kill or no germination
Procedure: as §1

[18] = tested on: velvetleaf (Abutilion theophrasti); assay: Postemergence herbicidal activity, velvetleaf; settings: foliar spray, visual after 2 weeks, 0 no injury, 100 complete kill
Procedure: as §2

[19] = tested on: morningglory (Ipomoea hederacea); assay: Preemergence herbicidal activity, morningglory; settings: soil spray, visual after 3 weeks, 0 no injury, 100 complete kill or no germination
Procedure: as §1

[20] = tested on: Rox orange sorghum (Sorghum bicolor); assay: Postemergence herbicidal activity, Rox orange sorghum; settings: foliar spray, visual after 2 weeks, 0 no injury, 100 complete kill
Procedure: as §2

wild oats (Avena fatua) [21] = assay: Preemergence herbicidal activity, wild oats; settings: soil spray, visual after 3 weeks, 0 no injury, 100 complete kill or no germination
Procedure: as §1

[22] = tested on: wild poinsettia (Euphorbia heterophylla); assay: Preemergence herbicidal activity, wild poinsettia; settings: soil spray, visual after 3 weeks, 0 no injury, 100 complete kill or no germination
Procedure: as §1

[23] = tested on: velvetleaf (Abutilion theophrasti); assay: Preemergence herbicidal activity, velvetleaf; settings: soil spray, visual after 3 weeks, 0 no injury, 100 complete kill or no germination
Procedure: as §1

viola (Viola tricolor) = assay: Postemergence herbicidal activity, viola; settings: foliar spray, visual after 2 weeks, 0 no injury, 100 complete kill
Procedure: as §2

## CCOc1cscc1S(=O)(=O)Nc1nc2c(OC)ccc(OC)n2n1 [Compound 11]
[1]; 4.4 g/Ha
  AMARE preemergence injury score 0-100: 90%
[2]; 15.6 ppm
  POLCO postemergence injury score 0-100: 80%
[3]; 15.6 ppm
  AMARE postemergence injury score 0-100: 100%
[4]; 4.4 g/Ha
  DIGSA preemergence injury score 0-100: 40%
[5]; 4.4 g/Ha
  SETFA preemergence injury score 0-100: 100%
[6]; 15.6 ppm
  STEME postemergence injury score 0-100: 80%
[7]; 4.4 g/Ha
  ALOMY preemergence injury score 0-100: 100%
[8]; 15.6 ppm
  XANST postemergence injury score 0-100: 90%
[9]; 4.4 g/Ha
  XANST preemergence injury score 0-100: 50%
[10]; 4.4 g/Ha
  CHEAL preemergence injury score 0-100: 95%
[11]; 15.6 ppm
  SETFA postemergence injury score 0-100: 100%
[12]; 15.6 ppm
  ALOMY postemergence injury score 0-100: 75%
[13]; 15.6 ppm
  IPOHE postemergence injury score 0-100: 70%
Wild oats (Avena fatua) [14]; 15.6 ppm
  AVEFA postemergence injury score 0-100: 85%
[15]; 4.4 g/Ha
  ECHCG preemergence injury score 0-100: 10%
[16]; 15.6 ppm
  CHEAL postemergence injury score 0-100: 95%
[17]; 4.4 g/Ha
  SORBI preemergence injury score 0-100: 98%
[18]; 15.6 ppm
  ABUTH postemergence injury score 0-100: 85%
[19]; 4.4 g/Ha
  IPOHE preemergence injury score 0-100: 30%
[20]; 15.6 ppm
  SORBI postemergence injury score 0-100: 90%
Wild oats (Avena fatua) [21]; 4.4 g/Ha
  AVEFA preemergence injury score 0-100: 70%
[22]; 4.4 g/Ha
  EPHHL preemergence injury score 0-100: 50%
[23]; 4.4 g/Ha
  ABUTH preemergence injury score 0-100: 80%
Viola (Viola tricolor); 15.6 ppm
  VIOTR postemergence injury score 0-100: 75%

## COc1csc(C)c1S(=O)(=O)Nc1nc2c(Cl)cnc(OC)n2n1 [Compound 22]
[1]; 35 g/Ha
  AMARE preemergence injury score 0-100: 100%
[2]; 31.3 ppm
  POLCO postemergence injury score 0-100: 90%
[3]; 31.3 ppm
  AMARE postemergence injury score 0-100: 100%
[4]; 35 g/Ha
  DIGSA preemergence injury score 0-100: 98%
[5]; 35 g/Ha
  SETFA preemergence injury score 0-100: 100%
[6]; 31.3 ppm
  STEME postemergence injury score 0-100: 80%
[7]; 35 g/Ha
  ALOMY preemergence injury score 0-100: 70%
[8]; 31.3 ppm
  XANST postemergence injury score 0-100: 90%
[9]; 35 g/Ha
  XANST preemergence injury score 0-100: 80%
[10]; 35 g/Ha
  CHEAL preemergence injury score 0-100: 98%
[11]; 31.3 ppm
  SETFA postemergence injury score 0-100: 80%
[12]; 31.3 ppm
  ALOMY postemergence injury score 0-100: 60%
[13]; 31.3 ppm
  IPOHE postemergence injury score 0-100: 90%
Wild oats (Avena fatua) [14]; 31.3 ppm
  AVEFA postemergence injury score 0-100: 50%
[15]; 35 g/Ha
  ECHCG preemergence injury score 0-100: 100%
[16]; 31.3 ppm
  CHEAL postemergence injury score 0-100: 90%
[17]; 35 g/Ha
  SORBI preemergence injury score 0-100: 100%
[18]; 31.3 ppm
  ABUTH postemergence injury score 0-100: 70%
[19]; 35 g/Ha
  IPOHE preemergence injury score 0-100: 98%
[20]; 31.3 ppm
  SORBI postemergence injury score 0-100: 95%
Wild oats (Avena fatua) [21]; 35 g/Ha
  AVEFA preemergence injury score 0-100: 70%
[22]; 35 g/Ha
  EPHHL preemergence injury score 0-100: 80%
[23]; 35 g/Ha
  ABUTH preemergence injury score 0-100: 100%
Viola (Viola tricolor); 31.3 ppm
  VIOTR postemergence injury score 0-100: 80%
